Molecular target: Nav 1.7 (Homo sapiens (Human), UniProt Q15858)
Assay: Nav 1.7 IWQ in vitro assay (IonWorks Quattro population patch-clamp)
Type: cell-based
Settings: 293 cells stably transfected with Nav 1.7; first part of table; read-out: Nav 1.7 IWQ IC50
Description: Nav 1.7 or Nav 1.5 IWQ In Vitro Assay
293 Cells stably transfected with either Nav 1.7 or Nav 1.5 were recorded in population patch-clamp mode with the IonWorks® Quattro automated electrophysiology system in accordance with the manufacturer's specifications (Molecular Devices, LLC, Sunnyvale, Calif.). Sodium channel currents were measured in response to a train of depolarizations that induced successively greater inactivation.
Cells were then left unclamped for a period of 3 to 8 minutes while a single concentration of test compound was added. Cells were then reclamped and put through the same voltage protocol. Current at the end of the 26th pulse to −20 mV was subtracted from the peak current evoked by the 26th pulse to −20 mV to correct for leak current. Percent block was calculated for each concentration in duplicate, and IC50 curves were fitted to percent block as a function of concentration.

Nav 1.7, sequence (Q15858 whole entry): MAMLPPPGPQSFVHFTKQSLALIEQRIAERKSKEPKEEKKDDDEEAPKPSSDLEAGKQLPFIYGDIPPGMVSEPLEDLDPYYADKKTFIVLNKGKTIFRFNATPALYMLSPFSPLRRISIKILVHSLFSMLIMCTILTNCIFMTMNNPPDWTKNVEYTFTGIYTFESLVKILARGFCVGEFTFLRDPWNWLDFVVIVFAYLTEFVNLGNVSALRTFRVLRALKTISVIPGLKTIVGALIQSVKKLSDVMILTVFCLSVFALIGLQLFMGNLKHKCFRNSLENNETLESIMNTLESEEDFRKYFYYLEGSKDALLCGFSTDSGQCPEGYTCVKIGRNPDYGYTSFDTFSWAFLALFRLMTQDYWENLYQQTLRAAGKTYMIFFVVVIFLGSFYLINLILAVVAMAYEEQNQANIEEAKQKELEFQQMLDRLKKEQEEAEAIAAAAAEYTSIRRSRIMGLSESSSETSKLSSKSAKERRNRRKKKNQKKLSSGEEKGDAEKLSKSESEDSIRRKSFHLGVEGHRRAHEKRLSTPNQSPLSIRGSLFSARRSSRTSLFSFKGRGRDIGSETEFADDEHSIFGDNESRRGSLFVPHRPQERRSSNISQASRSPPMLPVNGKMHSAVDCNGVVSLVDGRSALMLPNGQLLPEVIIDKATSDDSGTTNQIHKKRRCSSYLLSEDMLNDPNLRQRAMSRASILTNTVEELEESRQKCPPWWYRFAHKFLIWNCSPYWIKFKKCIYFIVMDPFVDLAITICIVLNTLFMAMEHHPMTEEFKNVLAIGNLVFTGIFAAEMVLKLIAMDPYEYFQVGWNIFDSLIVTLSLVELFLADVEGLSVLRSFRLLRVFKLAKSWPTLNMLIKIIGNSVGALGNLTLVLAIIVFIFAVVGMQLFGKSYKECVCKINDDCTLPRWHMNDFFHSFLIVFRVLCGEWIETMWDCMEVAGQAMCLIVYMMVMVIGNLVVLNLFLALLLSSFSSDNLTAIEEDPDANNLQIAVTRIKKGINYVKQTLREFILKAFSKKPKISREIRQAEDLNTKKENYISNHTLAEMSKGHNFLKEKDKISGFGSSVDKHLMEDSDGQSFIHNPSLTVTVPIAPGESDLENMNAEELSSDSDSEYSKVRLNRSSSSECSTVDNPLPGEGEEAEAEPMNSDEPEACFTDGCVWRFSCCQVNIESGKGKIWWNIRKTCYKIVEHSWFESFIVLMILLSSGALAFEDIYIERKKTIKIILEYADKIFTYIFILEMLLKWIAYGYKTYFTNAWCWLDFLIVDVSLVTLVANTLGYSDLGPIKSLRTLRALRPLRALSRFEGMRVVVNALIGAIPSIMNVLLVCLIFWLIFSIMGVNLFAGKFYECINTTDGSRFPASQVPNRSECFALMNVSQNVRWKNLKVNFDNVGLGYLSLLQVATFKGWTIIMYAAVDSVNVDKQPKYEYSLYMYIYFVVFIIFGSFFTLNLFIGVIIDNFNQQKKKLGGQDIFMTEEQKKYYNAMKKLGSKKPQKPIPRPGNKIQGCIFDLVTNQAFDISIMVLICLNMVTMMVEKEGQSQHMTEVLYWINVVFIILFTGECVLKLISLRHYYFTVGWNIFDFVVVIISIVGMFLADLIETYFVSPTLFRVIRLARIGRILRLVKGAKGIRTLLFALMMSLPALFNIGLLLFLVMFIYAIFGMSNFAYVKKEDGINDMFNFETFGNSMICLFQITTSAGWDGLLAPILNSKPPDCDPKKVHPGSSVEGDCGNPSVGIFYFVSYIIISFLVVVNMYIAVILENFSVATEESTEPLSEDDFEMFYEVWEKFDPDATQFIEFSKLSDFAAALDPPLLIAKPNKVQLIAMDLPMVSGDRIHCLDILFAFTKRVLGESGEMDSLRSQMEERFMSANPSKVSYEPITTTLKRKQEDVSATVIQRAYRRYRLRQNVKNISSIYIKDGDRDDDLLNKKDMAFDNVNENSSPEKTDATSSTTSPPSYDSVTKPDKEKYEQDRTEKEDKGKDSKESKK

For `O=S(=O)(Nc1nccs1)c1ccc2c(-c3ccc(C(F)(F)F)cc3-c3ccncc3)nccc2c1` [Example 71, 1-(2-(PYRIDIN-4-YL)-4-(TRIFLUOROMETHYL)PHENYL)-N-(THIAZOL-2-YL)ISOQUINOLINE-6-SULFONAMIDE], which IC50 is on record?
The IC50 was 20 nM.

`CC1(c2ccccc2)CN(c2cccc3cc(S(=O)(=O)Nc4ncns4)ccc23)CCO1` (stereo not drawn) [Example 15] was tested. Which IC50 did it give?
Its IC50 is 1290 nM.

`O=S(=O)(Nc1ccncn1)c1ccc2c(-c3ccc(C(F)(F)F)cc3-c3ccncc3)cccc2c1` [Example 75] was tested. Which IC50 did it give?
The IC50 was 100 nM.

`CN1CC=C(c2cc(C(F)(F)F)ccc2-c2nccc3cc(S(=O)(=O)Nc4ccncn4)ccc23)CC1` [Example 68, 1-(2-(1-METHYL-1,2,3,6-TETRAHYDROPYRIDIN-4-YL)-4-(TRIFLUOROMETHYL)PHENYL)-N-(PYRIMIDIN-4-YL)ISOQUINOLINE-6-SULFONAMIDE] was tested. Which IC50 did it give?
Its IC50 is 1520 nM.

`COc1cc(C(F)(F)F)ccc1-c1cccc2cc(S(=O)(=O)Nc3ccncn3)ccc12` [Example 42] was tested. Which IC50 did it give?
The IC50 was 50 nM.

For `O=S(=O)(Nc1ncns1)c1ccc2c(N3CCOCC3)cccc2c1` [Example 13], which IC50 is on record?
Its IC50 is 3560 nM.

How did the IC50 turn out when `CN1CC=C(c2cc(C(F)(F)F)ccc2-c2cccc3cc(S(=O)(=O)Nc4ccncn4)ccc23)CC1` [Example 76] was run?
Its IC50 is 70 nM.

Same assay, conditions: 293 cells stably transfected with Nav 1.7; second part of table; read-out: Nav1.7 IWQ IC50 IP

With `Cc1nn(-c2ccccc2)nc1COc1nccc2cc(S(=O)(=O)Nc3ccncn3)ccc12` [Example 138, 1-((5-METHYL-2-PHENYL-2H-1,2,3-TRIAZOL-4-YL)METHOXY)-N-(PYRIMIDIN-4-YL)ISOQUINOLINE-6-SULFONAMIDE] as the compound, how does the IC50 read?
Its IC50 is 3960 nM.

Which IC50 does the source give for `O=S(=O)(Nc1ccncn1)c1ccc2c(OCCn3ccnn3)nccc2c1` [Example 296, 1-(2-(1H-1,2,3-TRIAZOL-1-YL)ETHOXY)-N-(PYRIMIDIN-4-YL)ISOQUINOLINE-6-SULFONAMIDE] here?
The IC50 was > 10000 nM.

For `O=C1CCCN1c1cccc2cc(S(=O)(=O)Nc3ncns3)ccc12` [Example 93], which IC50 is on record?
Its IC50 is 7970 nM.

Which IC50 does the source give for `O=S(=O)(Nc1ccncn1)c1ccc2c(C3CCCN3C3CCOCC3)nccc2c1` (stereo not drawn) [Example 316, N-(PYRIMIDIN-4-YL)-1-(1-(TETRAHYDRO-2H-PYRAN-4-YL)PYRROLIDIN-2-YL)ISOQUINOLINE-6-SULFONAMIDE 2,2,2-TRIFLUOROACETATE] here?
Its IC50 is > 10000 nM.

`Cn1nc(C(F)(F)F)cc1-c1nccc2cc(S(=O)(=O)Nc3ccncn3)ccc12` [Example 312, 1-(1-METHYL-3-(TRIFLUOROMETHYL)-1H-PYRAZOL-5-YL)-N-(PYRIMIDIN-4-YL)ISOQUINOLINE-6-SULFONAMIDE] was tested. Which IC50 did it give?
Its IC50 is > 10000 nM.

Same assay, conditions: at […]

How did the “Nav1.7 Single Point Data IWQ (at […]) (%)” value turn out when `CCC1CCCCN1c1ncnc2cc(S(=O)(=O)Nc3nccs3)ccc12` (stereo not drawn) [Example 535, 4-(2-ETHYLPIPERIDIN-1-YL)-N-(THIAZOL-2-YL)QUINAZOLINE-7-SULFONAMIDE] was run?
The value was 26%.

For `O=S(=O)(Nc1ccncn1)c1ccc2c(OCCn3ccnn3)nccc2c1` [Example 296, 1-(2-(1H-1,2,3-TRIAZOL-1-YL)ETHOXY)-N-(PYRIMIDIN-4-YL)ISOQUINOLINE-6-SULFONAMIDE], which “Nav1.7 Single Point Data IWQ (at […]) (%)” value is on record?
Its value is 23%.

How did the “Nav1.7 Single Point Data IWQ (at […]) (%)” value turn out when `O=S(=O)(Nc1ccncn1)c1ccc2c(-c3cccc4cc[nH]c34)nccc2c1` [Example 434, 1-(1H-INDOL-7-YL)-N-(PYRIMIDIN-4-YL)ISOQUINOLINE-6-SULFONAMIDE] was run?
The value was 20.0%.

Which “Nav1.7 Single Point Data IWQ (at […]) (%)” value does the source give for `CC1CN(c2cccc(F)c2)CCN1c1nccc2cc(S(=O)(=O)Nc3ccncn3)ccc12` (stereo not drawn) [Example 403, 1-(4-(3-FLUOROPHENYL)-2-METHYLPIPERAZIN-1-YL)-N-(PYRIMIDIN-4-YL)ISOQUINOLINE-6-SULFONAMIDE] here?
Its value is 33.5%.

Which “Nav1.7 Single Point Data IWQ (at […]) (%)” value does the source give for `O=S(=O)(Nc1ccncn1)c1ccc2c(C3CCCN3C3CCOCC3)nccc2c1` (stereo not drawn) [Example 316, N-(PYRIMIDIN-4-YL)-1-(1-(TETRAHYDRO-2H-PYRAN-4-YL)PYRROLIDIN-2-YL)ISOQUINOLINE-6-SULFONAMIDE 2,2,2-TRIFLUOROACETATE] here?
Its value is 26%.

For `Cn1nc(C(F)(F)F)cc1-c1nccc2cc(S(=O)(=O)Nc3ccncn3)ccc12` [Example 312, 1-(1-METHYL-3-(TRIFLUOROMETHYL)-1H-PYRAZOL-5-YL)-N-(PYRIMIDIN-4-YL)ISOQUINOLINE-6-SULFONAMIDE], which “Nav1.7 Single Point Data IWQ (at […]) (%)” value is on record?
Its value is 47%.

For `CC(C)c1ccc2[nH]ncc2c1-c1nccc2cc(S(=O)(=O)Nc3ccncn3)ccc12` [Example 430, 1-(5-ISOPROPYL-1H-INDAZOL-4-YL)-N-(PYRIMIDIN-4-YL)ISOQUINOLINE-6-SULFONAMIDE], which “Nav1.7 Single Point Data IWQ (at […]) (%)” value is on record?
Its value is 35.4%.

Which “Nav1.7 Single Point Data IWQ (at […]) (%)” value does the source give for `COc1cc(-c2ncc(Cl)s2)ccc1-c1nccc2cc(S(=O)(=O)Nc3ccncn3)ccc12` [Example 458, 1-(4-(5-CHLOROTHIAZOL-2-YL)-2-METHOXYPHENYL)-N-(PYRIMIDIN-4-YL)ISOQUINOLINE-6-SULFONAMIDE] here?
The value was 24.7%.

Same assay, conditions: read-out: Nav 1.7 IWQ percent inhibition at […]; read-out: Nav 1.7 IWQ percent inhibition at 4.9 μM

For `COc1cc(Cl)ccc1-c1cccc2cc(S(=O)(=O)Nc3cc(C)on3)ccc12` [Example 44], which inhibition at […] is on record?
The inhibition at […] was 22.1%.

Reference: patent US9012443B2 (Amgen Inc., priority 2011, dated 2015)
